Data from paper doi:10.1101/2021.09.30.462449v1 (biorxiv, 2021).

Legend:
ALK R1275Q = ALK R1275Q (Homo sapiens, UniProt Q9UM73, R1275Q); assay: biochemical; settings: read-out: % inhibition mean (Lanthascreen)
PKMYT1 = PKMYT1 (Homo sapiens, UniProt Q99640); assay: biochemical; settings: read-out: % inhibition mean (Lanthascreen)
KIT N822K = KIT N822K (Homo sapiens, UniProt P10721, N822K); assay: biochemical; settings: read-out: % inhibition mean (Lanthascreen)
STK32B (YANK2) = STK32B (YANK2) (Homo sapiens, UniProt Q9NY57); assay: biochemical; settings: read-out: % inhibition mean (Lanthascreen)
RAF1 (cRAF) Y340D Y341D = RAF1 (cRAF) Y340D Y341D (Homo sapiens, UniProt P04049, Y340D/Y341D); assay: biochemical; settings: read-out: % inhibition mean (Lanthascreen)
CDK9/cyclin K = CDK9/cyclin K (Homo sapiens, UniProt P50750); assay: biochemical; settings: read-out: % inhibition mean (Lanthascreen)
LIMK1 = LIMK1 (Homo sapiens, UniProt P53667); assay: biochemical; settings: read-out: % inhibition mean (Lanthascreen)
TLK1 = TLK1 (Homo sapiens, UniProt Q9UKI8); assay: biochemical; settings: read-out: % inhibition mean (Lanthascreen)
ANKK1 = ANKK1 (Homo sapiens, UniProt Q8NFD2); assay: biochemical; settings: read-out: % inhibition mean (Lanthascreen)
Sequence of ANKK1 (Q8NFD2 whole entry): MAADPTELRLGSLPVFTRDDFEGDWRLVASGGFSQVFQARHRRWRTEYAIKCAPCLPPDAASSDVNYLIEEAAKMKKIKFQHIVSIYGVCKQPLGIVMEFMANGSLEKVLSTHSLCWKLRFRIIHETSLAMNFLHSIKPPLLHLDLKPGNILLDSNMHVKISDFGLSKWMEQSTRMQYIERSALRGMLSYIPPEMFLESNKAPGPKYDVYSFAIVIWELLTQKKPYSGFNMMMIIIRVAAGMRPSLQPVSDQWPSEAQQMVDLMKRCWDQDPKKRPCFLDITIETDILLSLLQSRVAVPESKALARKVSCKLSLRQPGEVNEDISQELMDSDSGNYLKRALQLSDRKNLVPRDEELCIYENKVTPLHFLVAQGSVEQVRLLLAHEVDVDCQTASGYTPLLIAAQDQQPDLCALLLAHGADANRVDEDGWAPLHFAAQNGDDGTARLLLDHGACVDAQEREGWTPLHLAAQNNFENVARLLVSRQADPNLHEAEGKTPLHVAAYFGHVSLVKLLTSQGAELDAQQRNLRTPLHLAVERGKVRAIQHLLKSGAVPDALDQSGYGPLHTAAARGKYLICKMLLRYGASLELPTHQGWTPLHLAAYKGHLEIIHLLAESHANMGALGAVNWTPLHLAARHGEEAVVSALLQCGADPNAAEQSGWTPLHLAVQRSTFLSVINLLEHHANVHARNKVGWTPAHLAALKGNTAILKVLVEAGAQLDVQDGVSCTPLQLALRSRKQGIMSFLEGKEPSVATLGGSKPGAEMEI

TEK (TIE2) R849W = TEK (TIE2) R849W (Homo sapiens, UniProt Q02763, R849W); assay: biochemical; settings: read-out: % inhibition mean (Lanthascreen)
KIT D816V = KIT D816V (Homo sapiens, UniProt P10721, D816V); assay: biochemical; settings: read-out: % inhibition mean (Lanthascreen)
PRKACB (PRKAC beta) = PRKACB (PRKAC beta) (Homo sapiens, UniProt P22694); assay: biochemical; settings: read-out: % inhibition mean (Lanthascreen)
BMPR2 = BMPR2 (Homo sapiens, UniProt Q13873); assay: biochemical; settings: read-out: % inhibition mean (Lanthascreen)
Sequence of BMPR2 (Q13873 whole entry): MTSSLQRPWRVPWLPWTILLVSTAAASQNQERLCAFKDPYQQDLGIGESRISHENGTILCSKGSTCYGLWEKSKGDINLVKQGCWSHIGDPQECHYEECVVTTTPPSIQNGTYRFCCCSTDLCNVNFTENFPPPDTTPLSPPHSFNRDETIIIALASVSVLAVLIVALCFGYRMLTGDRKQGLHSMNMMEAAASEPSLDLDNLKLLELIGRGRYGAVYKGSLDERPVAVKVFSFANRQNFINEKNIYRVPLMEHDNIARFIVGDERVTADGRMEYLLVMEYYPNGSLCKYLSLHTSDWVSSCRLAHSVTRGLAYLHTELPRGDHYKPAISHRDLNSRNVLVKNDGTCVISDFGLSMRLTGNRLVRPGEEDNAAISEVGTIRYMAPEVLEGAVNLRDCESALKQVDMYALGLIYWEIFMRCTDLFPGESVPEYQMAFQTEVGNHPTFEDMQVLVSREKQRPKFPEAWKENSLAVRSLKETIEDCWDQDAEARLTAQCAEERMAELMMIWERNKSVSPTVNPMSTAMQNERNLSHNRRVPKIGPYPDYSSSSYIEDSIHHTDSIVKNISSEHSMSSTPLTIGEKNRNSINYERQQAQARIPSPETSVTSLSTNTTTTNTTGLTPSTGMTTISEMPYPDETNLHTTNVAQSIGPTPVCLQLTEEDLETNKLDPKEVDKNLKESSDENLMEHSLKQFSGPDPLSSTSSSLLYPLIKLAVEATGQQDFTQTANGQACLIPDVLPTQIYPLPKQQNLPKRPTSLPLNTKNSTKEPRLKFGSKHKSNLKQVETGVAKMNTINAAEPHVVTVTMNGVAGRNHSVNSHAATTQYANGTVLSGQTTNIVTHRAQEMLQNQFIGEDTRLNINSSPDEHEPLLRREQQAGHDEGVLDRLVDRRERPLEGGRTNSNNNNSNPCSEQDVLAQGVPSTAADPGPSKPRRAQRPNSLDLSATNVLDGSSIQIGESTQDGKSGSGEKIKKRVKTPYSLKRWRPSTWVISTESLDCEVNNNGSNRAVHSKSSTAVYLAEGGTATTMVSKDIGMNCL

MELK = MELK (Homo sapiens, UniProt Q14680); assay: ThermoFisher kinase profiling; format: biochemical; settings: read-out: % inhibition at 1 μM
STK33 = STK33 (Homo sapiens, UniProt Q9BYT3); assay: biochemical; settings: read-out: % inhibition mean (Lanthascreen)
Sequence of STK33 (Q9BYT3 whole entry): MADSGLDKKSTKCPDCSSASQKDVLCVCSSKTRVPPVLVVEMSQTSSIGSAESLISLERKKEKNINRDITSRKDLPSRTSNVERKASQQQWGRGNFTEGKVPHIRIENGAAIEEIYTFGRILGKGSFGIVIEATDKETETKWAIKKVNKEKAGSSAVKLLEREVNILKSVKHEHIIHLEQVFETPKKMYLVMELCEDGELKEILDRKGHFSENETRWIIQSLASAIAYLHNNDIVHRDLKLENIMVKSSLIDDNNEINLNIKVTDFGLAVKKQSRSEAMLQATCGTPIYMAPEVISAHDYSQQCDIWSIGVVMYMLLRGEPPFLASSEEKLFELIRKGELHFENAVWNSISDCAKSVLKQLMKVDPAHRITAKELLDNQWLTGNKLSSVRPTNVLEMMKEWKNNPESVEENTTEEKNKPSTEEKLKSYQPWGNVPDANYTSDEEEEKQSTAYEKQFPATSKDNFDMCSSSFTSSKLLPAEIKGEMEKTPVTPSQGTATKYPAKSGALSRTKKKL

GSG2 (Haspin) = GSG2 (Haspin) (Homo sapiens, UniProt Q8TF76); assay: biochemical; settings: read-out: % inhibition mean (Adapta)
PI4KA (PI4K alpha) = PI4KA (PI4K alpha) (Homo sapiens, UniProt P42356); assay: biochemical; settings: read-out: % inhibition mean (Adapta)
DAPK1 = DAPK1 (Homo sapiens, UniProt P53355); assay: biochemical; settings: read-out: % inhibition mean (Adapta)
PIK3C2B (PI3K-C2 beta) = PIK3C2B (PI3K-C2 beta) (Homo sapiens, UniProt O00750); assay: biochemical; settings: read-out: % inhibition mean (Adapta)
PIP5K1A = PIP5K1A (Homo sapiens, UniProt Q99755); assay: biochemical; settings: read-out: % inhibition mean (Adapta)
Sequence of PIP5K1A (Q99755 whole entry): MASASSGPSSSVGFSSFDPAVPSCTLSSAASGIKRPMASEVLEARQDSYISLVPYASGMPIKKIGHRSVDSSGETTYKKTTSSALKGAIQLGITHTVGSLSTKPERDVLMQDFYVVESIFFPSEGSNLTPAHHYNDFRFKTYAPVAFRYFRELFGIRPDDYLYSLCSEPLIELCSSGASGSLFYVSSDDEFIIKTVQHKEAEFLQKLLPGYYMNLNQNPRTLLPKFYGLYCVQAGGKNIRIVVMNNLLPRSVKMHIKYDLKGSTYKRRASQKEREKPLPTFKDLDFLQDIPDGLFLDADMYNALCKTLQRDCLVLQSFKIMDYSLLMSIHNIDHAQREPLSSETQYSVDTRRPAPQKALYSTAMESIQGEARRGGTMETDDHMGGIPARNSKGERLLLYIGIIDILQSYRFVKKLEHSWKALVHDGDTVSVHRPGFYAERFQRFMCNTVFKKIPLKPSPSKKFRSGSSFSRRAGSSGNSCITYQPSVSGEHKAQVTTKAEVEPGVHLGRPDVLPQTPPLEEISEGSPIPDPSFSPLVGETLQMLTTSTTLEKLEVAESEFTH

PI4K2A (PI4K2 alpha) = PI4K2A (PI4K2 alpha) (Homo sapiens, UniProt Q9BTU6); assay: biochemical; settings: read-out: % inhibition mean (Adapta)
SPHK1 = SPHK1 (Homo sapiens, UniProt Q9NYA1); assay: biochemical; settings: read-out: % inhibition mean (Adapta)
CDK7/cyclin H/MNAT1 = CDK7/cyclin H/MNAT1 (Homo sapiens, UniProt P50613); assay: biochemical; settings: read-out: % inhibition mean (Adapta)
IRAK1 = IRAK1 (Homo sapiens, UniProt P51617); assay: biochemical; settings: read-out: % inhibition mean (Adapta)
Sequence of IRAK1 (P51617 whole entry): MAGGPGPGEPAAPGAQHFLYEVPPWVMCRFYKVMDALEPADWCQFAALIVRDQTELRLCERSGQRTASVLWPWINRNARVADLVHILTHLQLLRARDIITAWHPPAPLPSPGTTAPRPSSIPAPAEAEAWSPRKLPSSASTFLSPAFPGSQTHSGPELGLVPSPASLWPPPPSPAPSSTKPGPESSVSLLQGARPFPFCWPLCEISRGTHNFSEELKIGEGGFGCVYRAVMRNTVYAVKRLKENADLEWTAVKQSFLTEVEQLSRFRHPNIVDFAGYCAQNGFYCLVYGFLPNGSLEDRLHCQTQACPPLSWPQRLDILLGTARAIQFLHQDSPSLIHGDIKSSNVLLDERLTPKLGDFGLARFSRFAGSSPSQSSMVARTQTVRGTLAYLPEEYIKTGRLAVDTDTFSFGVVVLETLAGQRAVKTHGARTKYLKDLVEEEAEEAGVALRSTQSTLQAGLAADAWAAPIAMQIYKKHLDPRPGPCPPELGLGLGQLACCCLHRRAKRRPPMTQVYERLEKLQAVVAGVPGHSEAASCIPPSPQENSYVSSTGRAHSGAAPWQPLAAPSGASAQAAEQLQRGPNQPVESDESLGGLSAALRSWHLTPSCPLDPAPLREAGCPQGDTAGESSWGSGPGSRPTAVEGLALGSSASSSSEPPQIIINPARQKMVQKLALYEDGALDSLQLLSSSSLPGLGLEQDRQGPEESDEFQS

PIP4K2A = PIP4K2A (Homo sapiens, UniProt P48426); assay: biochemical; settings: read-out: % inhibition mean (Adapta)
LRRK2 = LRRK2 (Homo sapiens, UniProt Q5S007); assay: biochemical; settings: read-out: % inhibition mean (Adapta)
CHUK (IKK alpha) = CHUK (IKK alpha) (Homo sapiens, UniProt O15111); assay: biochemical; settings: read-out: % inhibition mean (Adapta)
Sequence of CHUK (IKK alpha) (O15111 whole entry): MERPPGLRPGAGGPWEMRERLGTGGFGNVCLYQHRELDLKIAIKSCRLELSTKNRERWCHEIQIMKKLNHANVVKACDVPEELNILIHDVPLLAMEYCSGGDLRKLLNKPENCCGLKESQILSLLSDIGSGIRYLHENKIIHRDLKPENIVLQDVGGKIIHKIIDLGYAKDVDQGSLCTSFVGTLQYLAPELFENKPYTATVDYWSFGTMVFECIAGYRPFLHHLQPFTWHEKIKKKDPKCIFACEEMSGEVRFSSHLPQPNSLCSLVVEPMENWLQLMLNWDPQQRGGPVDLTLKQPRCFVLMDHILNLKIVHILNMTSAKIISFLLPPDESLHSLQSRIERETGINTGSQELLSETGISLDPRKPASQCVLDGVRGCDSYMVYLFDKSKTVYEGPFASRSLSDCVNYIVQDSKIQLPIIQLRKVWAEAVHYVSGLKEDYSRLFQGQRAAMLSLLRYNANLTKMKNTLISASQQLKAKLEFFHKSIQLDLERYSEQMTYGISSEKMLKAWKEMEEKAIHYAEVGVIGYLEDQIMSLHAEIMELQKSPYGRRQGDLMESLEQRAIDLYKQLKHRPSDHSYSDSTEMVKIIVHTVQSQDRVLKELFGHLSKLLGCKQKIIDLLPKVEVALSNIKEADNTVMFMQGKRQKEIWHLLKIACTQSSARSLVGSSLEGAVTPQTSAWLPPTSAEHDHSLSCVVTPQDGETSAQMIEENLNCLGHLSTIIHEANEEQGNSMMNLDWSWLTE

CDK4/cyclin D3 = CDK4/cyclin D3 (Homo sapiens, UniProt P11802); assay: biochemical; settings: read-out: % inhibition mean (Adapta)
Sequence of CDK4/cyclin D3 (P11802 whole entry): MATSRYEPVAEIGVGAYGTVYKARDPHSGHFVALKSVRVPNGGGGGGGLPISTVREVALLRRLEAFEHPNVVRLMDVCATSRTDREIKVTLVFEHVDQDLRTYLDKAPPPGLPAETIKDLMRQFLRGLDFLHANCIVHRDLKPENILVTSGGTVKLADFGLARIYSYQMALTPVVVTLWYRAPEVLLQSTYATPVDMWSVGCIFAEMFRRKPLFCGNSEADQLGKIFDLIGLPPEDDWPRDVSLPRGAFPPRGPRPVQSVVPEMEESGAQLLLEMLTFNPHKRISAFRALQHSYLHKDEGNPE
Sequence of CDK4/cyclin D3 (P30281 whole entry partner): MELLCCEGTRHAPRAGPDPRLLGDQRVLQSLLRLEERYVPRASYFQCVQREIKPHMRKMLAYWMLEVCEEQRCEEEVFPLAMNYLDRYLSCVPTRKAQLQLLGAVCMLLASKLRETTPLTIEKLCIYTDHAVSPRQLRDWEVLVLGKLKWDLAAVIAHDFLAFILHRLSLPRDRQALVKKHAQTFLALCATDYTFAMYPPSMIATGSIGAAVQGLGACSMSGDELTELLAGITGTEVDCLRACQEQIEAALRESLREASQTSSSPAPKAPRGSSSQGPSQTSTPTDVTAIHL

## COc1ccc2nc3cc(Cl)ccc3c(Nc3cc(CN4CCCC4)c(O)c(CN4CCCC4)c3)c2n1 [Pyronaridine, 4-[(7-Chloro-2-methoxybenzo[b][1,5]naphthyridin-10-yl)amino]-2,6-bis(1-pyrrolidinylmethyl)phenol phosphate (1:4)]
ALK R1275Q
  inhibition at 1 µM: 6%
PKMYT1
  inhibition at 1 µM: 1%
KIT N822K
  inhibition at 1 µM: 14%
STK32B (YANK2)
  inhibition at 1 µM: 0%
RAF1 (cRAF) Y340D Y341D
  inhibition at 1 µM: -5%
CDK9/cyclin K
  inhibition at 1 µM: 5%
LIMK1
  inhibition at 1 µM: -7%
TLK1
  inhibition at 1 µM: 12%
ANKK1
  inhibition at 1 µM: -2%
TEK (TIE2) R849W
  inhibition at 1 µM: -3%
KIT D816V
  inhibition at 1 µM: -3%
PRKACB (PRKAC beta)
  inhibition at 1 µM: 12%
BMPR2
  inhibition at 1 µM: 8%
MELK
  inhibition at 1 µM: 31%
STK33
  inhibition at 1 µM: 11%
GSG2 (Haspin)
  inhibition at 1 µM: 9%
PI4KA (PI4K alpha)
  inhibition at 1 µM: 0%
DAPK1
  inhibition at 1 µM: 11%
PIK3C2B (PI3K-C2 beta)
  inhibition at 1 µM: -5%
PIP5K1A
  inhibition at 1 µM: -6%
PI4K2A (PI4K2 alpha)
  inhibition at 1 µM: 4%
SPHK1
  inhibition at 1 µM: 10%
CDK7/cyclin H/MNAT1
  inhibition at 1 µM: -13%
IRAK1
  inhibition at 1 µM: -4%
PIP4K2A
  inhibition at 1 µM: 15%
LRRK2
  inhibition at 1 µM: -2%
CHUK (IKK alpha)
  inhibition at 1 µM: 0%
CDK4/cyclin D3
  inhibition at 1 µM: -6%
